The values below come from publication PMC3608651, “A Broad Profile of Co-Dominant Epitopes Shapes the Peripheral Mycobacterium tuberculosis Specific CD8+ T-Cell Immune Response in South African Patients with Active Tuberculosis” (PLoS ONE, 2013).

What all share (assay type): binding
Assay [1] deals with HLA-A*02:01 (Homo sapiens, UniProt P04439, D140Y/D185E/D98H/E176V/E277Q/G131W/G231S/I119V/I121R/I166T/I218V/L300P/L318F/N151K/N90K/P208A/P217A/Q86G/Q94H/R138H/R169H/T345S). The conditions noted are these: percent relative the binding of positive control peptide […]; plate-bound monomer 0.5 µg/ml; duplicated experiments; positive binder >40%.
Assay [2] concerns the target HLA-A*30:02 (Homo sapiens, UniProt P04439, D101N/D140H/D185E/E176R/F33S/G80R/H175R/K168Q/Q94H/R138E/R41S/V100E). The conditions noted are these: percent relative the binding of positive control peptide […]; duplicated experiments; positive binder >40%.
The target of assay [3] is HLA-A*30:01 (Homo sapiens, UniProt P04439, D140H/D185E/E176W/F33S/G80R/H175R/K168Q/R138E/R41S). Particulars: percent relative the binding of positive control peptide […]; duplicated experiments; positive binder >40%.
The target in assay [4] is HLA-B*58:01 (Homo sapiens, UniProt P01889, A329T/C349S/D201E/D98Y/E176V/E187L/E204Q/E69T/G107R/I218V/I90N/K202T/L105A/L119I/N104I/N87E/Q89R/Q94S/R106L/R155S/R180L/R86G/S101N/S121R/S35A/S48A/T118I/V127L/V306I/V36M/Y140S/Y91M). Particulars: percent relative the binding of positive control peptide […]; duplicated experiments; positive binder >40%.
Assay [5] addresses HLA-A*68:01 (Homo sapiens, UniProt P04439, A269V/D185E/E176V/E277Q/E87N/F33Y/G231S/I121M/I166T/I218V/L180W/L300P/L318F/N151K/P208A/P217A/Q86R/R169H/T345S). The conditions noted are these: percent relative the binding of positive control peptide […]; duplicated experiments; positive binder >40%.
The target of assay [6] is HLA-B*07:02 (Homo sapiens, UniProt P01889). Particulars: percent relative the binding of positive control peptide […]; duplicated experiments; positive binder >40%.
In assay [7] the target is HLA-A*24:02 (Homo sapiens, UniProt P04439, D101N/D140Y/D185E/E176V/E190D/F33S/G103R/G107R/I119L/I121M/I306V/K335N/L105A/L180Q/L300P/N151K/N90K/Q86E/Q94H/R106L/R138H/R89G/T104I/T345S/V100E/W191G/Y123F). Particulars: percent relative the binding of positive control peptide […]; duplicated experiments; positive binder >40%.
The target of assay [8] is HLA-C*07:01 (Homo sapiens, UniProt P10321, K90N/S123Y). Particulars: percent relative the binding of positive control peptide […]; duplicated experiments; positive binder >40%.

PTQQIPKLV: in assay [1], the “Bind A*02:01” value was found to be 3%. Moreover, the “Bind A*30:02” value in assay [2] turned out to be 86%. Besides, in assay [3], the “Bind A*30:01” value came out at 10%. In addition, the “Bind B*58:01” value in assay [4] is recorded as 9%. The “Bind A*68:01” value in assay [5] was 0%. In assay [6], the “Bind B*07:02” value turned out to be 5%. For the same substance, in assay [7], the “Bind A*24:02” value was 11%. The “Bind C*07:01” value in assay [8] was 22%.

For LIGLAMGDA, the “Bind A*02:01” value in assay [1] is 59%. For the same substance, the “Bind A*30:02” value in assay [2] stood at 5%. Further, in assay [3], the “Bind A*30:01” value is 0%. In addition, the “Bind B*58:01” value in assay [4] came to 0%. Also, in assay [5], the “Bind A*68:01” value is recorded as 0%. Besides, the “Bind B*07:02” value in assay [6] was found to be 0%. In addition, the “Bind A*24:02” value in assay [7] was 0%. Also, the “Bind C*07:01” value in assay [8] is given as 0%.

On to LDPSQGMGP, for which, in assay [1], the “Bind A*02:01” value came out at 41%. Besides, the “Bind A*30:02” value in assay [2] is 0%. Besides, the “Bind A*30:01” value in assay [3] was found to be 32%. Also, the “Bind B*58:01” value in assay [4] came to 12%. For the same substance, the “Bind A*68:01” value in assay [5] came out at 0%. Besides, the “Bind B*07:02” value in assay [6] was 43%. In addition, the “Bind A*24:02” value in assay [7] is 12%. The “Bind C*07:01” value in assay [8] is 18%.

Regarding SSNLKFQDA, in assay [1], the “Bind A*02:01” value amounted to 32%. Moreover, in assay [2], the “Bind A*30:02” value was 64%. Further, in assay [3], the “Bind A*30:01” value came to 0%. Also, the “Bind B*58:01” value in assay [4] is recorded as 9%. In assay [5], the “Bind A*68:01” value is 14%. Further, the “Bind B*07:02” value in assay [6] was found to be 0%. Besides, the “Bind A*24:02” value in assay [7] amounted to 12%. In addition, the “Bind C*07:01” value in assay [8] amounted to 10%.

For the substance ELGGANIPA, the “Bind A*02:01” value in assay [1] is given as 47%. Further, the “Bind A*30:02” value in assay [2] turned out to be 0%. For the same substance, the “Bind A*30:01” value in assay [3] worked out at 0%. Besides, the “Bind B*58:01” value in assay [4] was found to be 0%. For the same substance, the “Bind A*68:01” value in assay [5] came out at 0%. The “Bind B*07:02” value in assay [6] was 0%. Moreover, in assay [7], the “Bind A*24:02” value is 0%. Moreover, the “Bind C*07:01” value in assay [8] stood at 0%.

In the case of NAVFNFPPN, the “Bind A*02:01” value in assay [1] was 24%. Besides, the “Bind A*30:02” value in assay [2] was determined as 70%. Also, the “Bind A*30:01” value in assay [3] is given as 0%. In assay [4], the “Bind B*58:01” value came out at 28%. Also, the “Bind A*68:01” value in assay [5] is on record as 27%. In addition, the “Bind B*07:02” value in assay [6] is given as 5%. For the same substance, the “Bind A*24:02” value in assay [7] is 14%. Further, in assay [8], the “Bind C*07:01” value was determined as 2%.

In the case of NLGAEIAVE [Rv0288_27–35m1], the “Bind A*02:01” value in assay [1] is 29%.

Consider LKFQDAYNA, for which the “Bind A*02:01” value in assay [1] turned out to be 17%. The “Bind A*30:02” value in assay [2] is on record as 91%. Moreover, the “Bind A*30:01” value in assay [3] is listed as 0%. In addition, the “Bind B*58:01” value in assay [4] is given as 9%. Moreover, the “Bind A*68:01” value in assay [5] was 0%. In addition, in assay [6], the “Bind B*07:02” value came to 0%. For the same substance, the “Bind A*24:02” value in assay [7] amounted to 0%. Further, in assay [8], the “Bind C*07:01” value is given as 53%.

SFYSDW YSP: the “Bind A*02:01” value in assay [1] stood at 7%. In addition, the “Bind A*30:02” value in assay [2] turned out to be 77%. The “Bind A*30:01” value in assay [3] turned out to be 0%. Moreover, the “Bind B*58:01” value in assay [4] is 0%. For the same substance, in assay [5], the “Bind A*68:01” value was 0%. The “Bind B*07:02” value in assay [6] is 0%. Besides, in assay [7], the “Bind A*24:02” value stood at 0%. Further, in assay [8], the “Bind C*07:01” value is 0%.

In the case of PNGTHSWEY, the “Bind A*02:01” value in assay [1] is 0%. For the same substance, the “Bind A*30:02” value in assay [2] is 77%. For the same substance, the “Bind A*30:01” value in assay [3] was 0%. In addition, the “Bind B*58:01” value in assay [4] is recorded as 0%. In addition, the “Bind A*68:01” value in assay [5] worked out at 9%. Further, the “Bind B*07:02” value in assay [6] was found to be 8%. The “Bind A*24:02” value in assay [7] was 0%. The “Bind C*07:01” value in assay [8] was 48%.

As to MGDAGGYKA, the “Bind A*02:01” value in assay [1] was determined as 45%. Also, in assay [2], the “Bind A*30:02” value is reported as 0%. For the same substance, the “Bind A*30:01” value in assay [3] was 0%. In assay [4], the “Bind B*58:01” value is 0%. Also, the “Bind A*68:01” value in assay [5] stood at 9%. Besides, the “Bind B*07:02” value in assay [6] was determined as 0%. Moreover, in assay [7], the “Bind A*24:02” value was 0%. The “Bind C*07:01” value in assay [8] was 0%.

As to MGPSLIGLA, in assay [1], the “Bind A*02:01” value was 68%. Besides, in assay [2], the “Bind A*30:02” value was 0%. In addition, the “Bind A*30:01” value in assay [3] was found to be 15%. Moreover, in assay [4], the “Bind B*58:01” value was determined as 41%. Also, the “Bind A*68:01” value in assay [5] was 0%. Moreover, the “Bind B*07:02” value in assay [6] was 5%. Besides, the “Bind A*24:02” value in assay [7] is 0%. Besides, the “Bind C*07:01” value in assay [8] was determined as 14%.

Regarding MW GPSSDPA, the “Bind A*02:01” value in assay [1] was determined as 6%. In assay [2], the “Bind A*30:02” value is listed as 74%. The “Bind A*30:01” value in assay [3] is listed as 0%. Besides, the “Bind B*58:01” value in assay [4] turned out to be 0%. Also, the “Bind A*68:01” value in assay [5] is 7%. Moreover, the “Bind B*07:02” value in assay [6] came to 3%. The “Bind A*24:02” value in assay [7] was 24%. The “Bind C*07:01” value in assay [8] came to 0%.

With YSDWYSPAC, in assay [1], the “Bind A*02:01” value is recorded as 59%. For the same substance, the “Bind A*30:02” value in assay [2] is listed as 2%. The “Bind A*30:01” value in assay [3] is reported as 15%. Also, the “Bind B*58:01” value in assay [4] is 85%. The “Bind A*68:01” value in assay [5] was determined as 18%. Besides, the “Bind B*07:02” value in assay [6] was 0%. Besides, the “Bind A*24:02” value in assay [7] stood at 0%. In assay [8], the “Bind C*07:01” value amounted to 5%.
